This note sets out measurements from US9845457B2, “Maintenance of genomic stability in cultured stem cells” (Cedars-Sinai Medical Center, priority 2010, dated 2017).

Data set [1] has as its system human cardiosphere-derived cells. The data set can be described thus: Intracellular ROS levels (DCF fluorescence) after 24 hours short-term exposure. The class given is cell-based. To be noted: 20% O2, antioxidant A 100-1,000,000-fold dilution, B 0.1-1000 μM, catalase 0.1-1000 units/ml, H2O2 0.1-1000 μM. The procedure: To assay intracellular ROS levels (ROS levels), twice-passaged CDCs were seeded in 6- or 96-well plates coated with 20 μg/ml fibronectin, and continuously cultured under the abovementioned four different conditions. At about 90% confluence, cells were incubated with 10 μM 2′,7′-dichlorodihydrofluorescein diacetate (DCFH-DA) (Invitrogen) for 60 min to allow DCFH-DA to diffuse into cells. The DCF fluorescence intensity in cells cultured in 96-well plates is directly determined using SpectraMax® M5 (Molecular Devices Corp.) with an excitation wavelength of 495 nm and an emission wavelength of 520 nm. Cells cultured in 6-well plates were trypsin-treated and fixed. The DCF fluorescence intensity in cells was analyzed using a FACS Calibur flow cytometer with CellQuest software (BD Biosciences).
Twice-passaged cells were seeded in 6- or 96-well plates coated with 20 μg/ml fibronectin. […] After 24 hours of culture, the DCF fluorescence intensity in cells was measured using the same methods as disclosed above.
CDCs were initially maintained in traditional 5% CO2/20% O2 culture condition and then seeded into 96-well plates and cultured for 24 hours under experimental conditions. […] Dev. for six separate experiments using different twice-passaged CDCs. (a.u.: arbitrary units. * p<0.01, †p<0.05 vs. the baseline levels, represented by “0” on the x-axis). […]

Data set [2] concerns ATR, Rad50, Rad51, Chk1, Chk2. The data set can be described thus: Western blotting of other DNA repair factors after 24 hours short-term exposure. The data set is classed as cell-based, human. Conditions: 20% O2, high concentrations. The procedure:
To examine the protein levels of ATM and other DNA repair-related factors, total protein was purified from twice-passaged CDCs cultured under the abovementioned four different conditions, using well-established laboratory techniques. Briefly, harvested cells were homogenized in a lysis buffer containing a protease inhibitor mixture (Roche Applied Science) on ice. After centrifugation at 15,000 rpm for 10 min, the supernatant was collected for experiments. The equivalent of 30 μg of total protein was loaded onto 5% or 10% SDS-PAGE gels, and then transferred to PVDF membranes. […] Quantitation for blots was done by Quantity One software, and expressions were normalized by β-actin.
Twice-passaged cells were seeded in 6-well plates coated with 20 μg/ml fibronectin. […] The expression of ATM and other DNA repair-related factors was assessed by Western blotting as described above.

Another data set deals with human CDCs. The data set is classed as cell-based. The procedure:
CDCs were expanded in conventional conditions under 20% O2 as described above. Twice-passaged CDCs and ES cells were used in these Examples. Cells were seeded in 96-well plates coated with 20 μg/ml fibronectin. […] After 24 hours of culture, cells were fixed, permeabilized and stained with rabbit polyclonal antibody against γ-H2AX (phosphor 5139, Abeam Inc.). After being washed, the cells were stained with a PE-conjugated secondary antibody and 4,6-diamidino-2-phenylindole (DAPI). Quantification of cells positive for γ-H2AX foci was performed by fluorescence microscopy (×40 magnification). Briefly, at least 5 images were captured from each culture condition from randomly-selected fields using Q-imaging (RETIGA EXi FAST, Canada) with the same exposure time. Cells with γ-H2AX foci in the nuclei were counted by a single observer blinded to treatment regimen, and the percentage of cells with γ-H2AX foci in each culture condition was used for statistical analysis.

On to `OO` [Antioxidant H2O2, hydrogen peroxide], for which the “ROS levels, dose response” value in data set [1] is reported as “increased”. Also, the “expression levels of ATR, Rad50, Rad51, Chk-1, and Chk-2” value in data set [2] is given as “increased”. In addition, the “percentage of CDCs with γ-H2AX foci (DNA damage), dose response” value in the data set with human CDCs is reported as “increased DNA damage dose-dependently”.

Consider catalase, for which the “ROS levels, dose response” value in data set [1] is “decreased”. The “expression levels of ATR, Rad50, Rad51, Chk-1, and Chk-2” value in data set [2] was “slightly or obviously decreased”. Moreover, the “percentage of CDCs with γ-H2AX foci (DNA damage), dose response” value with human CDCs is “A similar result”.
